In patent publication US11472787B2, “Docosahexaenoic acid endocannabinoid epoxide derivative compositions” (The Board of Trustees of the University of Illinois, priority 2017, dated 2022):

Key:
MG63 cells [1] = experiment: Annexin V binding apoptosis assay in MG63 cells; assay type: cell-based; details: 12.5 μM, 24 hours
Experimental: (§1) All three amino-modified derivatives of 10,11-EDP were tested for their apoptotic activity using a BD biosciences Annexin V binding assay for apoptosis at 12.5 μM concentration (FIG. 2). Cells were grown and maintained in Dulbecco's modified Eagle's medium supplemented with 10% fetal bovine serum, 1% streptomycin and penicillin at 37° C. in a 5% CO2 humidified air atmosphere in 12 well plate to 90% confluency and then appropriate amount of compound or control was added to the well. The cells were incubated for 24 hours and then prepared for apoptosis assays as indicated in BD biosciences Annexin V binding assay kit instructions and analyzed by BD Accuri C6 flow cytometer and FCS flow software. […] However, their effects were not consistent in trend among the three cell lines. The cyclopropyl analog seemed to have the highest pro-apoptotic potential among the three within error limits. […] In 143B cells the increase in pro-apoptotic potential was only 18.8±0.3% for the iso-propyl derivative as compared to 25.7±0.4% for the n-propyl derivative.

143B cells [2] = experiment: Annexin V binding apoptosis assay in 143B cells; assay type: cell-based; details: 12.5 μM, 24 hours
Experimental: as §1

HOS cells [3] = experiment: Annexin V binding apoptosis assay in HOS cells; assay type: cell-based; details: 12.5 μM, 24 hours
Experimental: as §1

CNR2 (CB2) = CNR2 (CB2) (Homo sapiens (Human), UniProt P34972); experiment: Presto-Tango β-arrestin recruitment assay, CNR2; assay type: cell-based; details: HTLA cells
Experimental: (§2) Binding of the parent compounds to putative receptors CNR1 and CNR2 (cannabinoid receptors 1& 2) was measured by a Presto-Tango assay (FIG. 5A and FIG. 5B). […] HTLA were received from the Roth Lab and CNR1 and CNR2 plasmids were purchased from Addgene. HTLA cells were maintained in DMEM with 10% FBS containing 2 μg/mL of puromycin and 100 μg/mL of hygromycin B at 37° C. in a 5% CO2 humidified air atmosphere and grown to 80-90% confluency. Cells were then seeded at 20,000 cells per 100 uL into poly-L-lysine coated 96-well plate. After 18-24 hrs, cells were transfected with CNR2 (0.1 ug/well) using Calfectin as the transfection reagent. Transfection media was replaced after 12-18 hours with serum-media and proceeded for ˜36 hours. On the day of the assay, serum-media was replaced with serum-free media for 4 hours, then the compounds were added in a log dose manner in DMSO to a final well volume of 200 uL and incubated overnight. The next day, media was removed and 20 μL of Bright-Glo solution was added to the cells and incubated for 20 min at room temperature in the dark and measured for luminescence. Relative luminescence units (RLU) values were normalized to % receptor response, plotted as a function of compound concentration and analyzed using “DoseResp” in OriginPro.

[4] = molecular target: Fatty acid amide hydrolase (FAAH) (Sus scrofa (Pig), UniProt Q9TUI8); experiment: Susceptibility to FAAH hydrolysis in pig brain membrane preparations; details: pig forebrain membranes, amide at 20 μM, 40 min
Chain of Fatty acid amide hydrolase (FAAH) (Q9TUI8 whole entry): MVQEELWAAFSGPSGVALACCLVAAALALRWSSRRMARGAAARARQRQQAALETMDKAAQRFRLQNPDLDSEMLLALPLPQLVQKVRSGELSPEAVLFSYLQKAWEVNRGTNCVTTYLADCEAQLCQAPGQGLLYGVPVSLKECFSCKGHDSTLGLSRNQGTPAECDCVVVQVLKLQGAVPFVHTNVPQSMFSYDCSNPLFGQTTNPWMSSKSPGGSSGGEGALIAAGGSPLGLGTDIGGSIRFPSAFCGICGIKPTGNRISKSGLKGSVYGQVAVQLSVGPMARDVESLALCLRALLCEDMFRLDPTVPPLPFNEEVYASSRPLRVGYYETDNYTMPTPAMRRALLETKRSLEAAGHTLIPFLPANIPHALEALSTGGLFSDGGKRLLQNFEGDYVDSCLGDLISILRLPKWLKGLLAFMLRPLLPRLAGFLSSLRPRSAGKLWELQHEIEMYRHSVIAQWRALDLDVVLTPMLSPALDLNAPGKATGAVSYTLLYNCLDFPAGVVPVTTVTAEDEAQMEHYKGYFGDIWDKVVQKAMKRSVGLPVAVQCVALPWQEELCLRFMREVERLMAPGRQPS
Experimental: Fatty acid amide hydrolase (FAAH) is a ubiquitously expressed protein in various mammals and the sequence of the protein has shown to be highly conserved in humans, mouse and pig. […] The preparation of pig forebrain membranes was achieved using dounce homogenization in buffer (50 mM Tris pH 7.4, 1 mM EDTA and 3 mM MgCl2) and membrane pelleting as previously described (Hillard, C. J.; Wilkison, D. M.; Edgemond, W. S.; Campbell, W. B. Characterization of the kinetics and distribution of N-arachidonylethanolamine (anandamide) hydrolysis by rat brain. Biochim Biophys Acta 1995, 1257, 249-56). Incubations contained 5 μg forebrain protein in a 0.5 mL reaction containing 50 mM Tris (pH 7.4), 1 mM EDTA, 3 mM MgCl2, and amide at 20 μM. At 40 min reactions were quenched with methanol containing 1 mM PMSF and centrifuged to pellet protein (10,000 g×10 min). The supernatant was collected and analyzed via LC-MS/MS as outlined below.
The products of hydrolysis were measured by LC-MS/MS as indicated in materials and methods section.

143B cells [5] = experiment: Scratch (wound migration) assay in 143B cells; assay type: cell-based
Experimental: (§3) A scratch assay was performed to analyze the anti-migratory properties of the three derivatives (FIGS. 3A-3C and 7). Cells were grown and maintained in Dulbecco's modified Eagle's medium supplemented with 10% fetal bovine serum, 1% streptomycin and penicillin at 37° C. in a 5% CO2 humidified air atmosphere in a 12 well plate to a confluent monolayer and then a scratch was made across the center and images were taken. The media was changed and appropriate compounds and controls were added and images of the scratch were taken every 2 hours. The images were processed by ImageJ software. In HOS cells (FIG. 3A), all 10,11-EDP derivatives restricted wound migration at 5 μM concentration.

HOS cells [6] = experiment: Scratch (wound migration) assay in HOS cells; assay type: cell-based; details: 5 μM; for restriction of wound migration as compared to control: over 10 hours
Experimental: as §3

CNR1 (CB1) = CNR1 (CB1) (Homo sapiens (Human), UniProt P21554); experiment: Presto-Tango β-arrestin recruitment assay, CNR1; assay type: cell-based; details: HTLA cells
Experimental: as §2

MG63 cells [7] = experiment: Scratch (wound migration) assay in MG63 cells; assay type: cell-based; details: MG63 cell line
Experimental: as §3

HUVEC cells = experiment: Endothelial tube formation (angiogenesis) assay on matrigel; assay type: cell-based; details: 0.5 μM or 1 μM compound, 5 hours
Source text: Increased angiogenesis is one of the hallmarks of cancer. The development of neo-vascularization is key for the adequate supply of nutrients and oxygen to the site of metastasis. Endothelial tube formation on matrix has been established as a cellular model for angiogenesis. Endothelial HUVEC cells form a networks of tubes when plated on matrigel and the tube formation in presence and absence of treatment can be quantified as a measure of restricted angiogenic potential.
Angiogenesis in endothelial HUVEC cells was measured using abcam angiogenesis kit (ab204726). Briefly, HUVEC cells at passage 2 (p=2) were grown to 80% confluency. The matrigel provided was thawed overnight and 50 μL was put into each well of a 96 well plate that had been chilled overnight in a −20° C. freezer. The plate was rocked slightly and then allowed to incubate at 37° C. for 1 hour. 15,000 HUVEC cells were then plated into the wells and were treated with vehicle control or 0.5 μM or 1 μM compound. A no matrix control and a control with vinblastine (inhibitor of angiogenesis) was also performed. All wells were performed in duplicates. The plates were then incubated for 5 hours at 37° C. […] The wells were imaged using a fluorescent microscope and analyzed using ImageJ with Angiogenesis Analyzer Plugin. […] The tube formation was assessed by Image J analysis.

BV-2 microglial cells = experiment: Anti-inflammatory assay in LPS-stimulated microglial cells; assay type: cell-based, mouse; details: BV-2 cells, 4 hours pre-incubation, 25 ng/mL LPS
Experimental: The anti-inflammatory effect of parent compounds was tested by measuring nitrite production in Bv2 microglial cells and the reduction in pro-inflammatory cytokine IL-6 (FIG. 4). Experiments were performed with mouse BV-2 microglial cells. Cells were grown and maintained in Dulbecco's modified Eagle's medium supplemented with 10% fetal bovine serum, 1% streptomycin and penicillin at 37° C. in a 5% CO2 humidified air atmosphere. BV-2 cells were seeded in 24-well plates (200K cells/mL) and grown to 80-90% confluency. For regioisomer screening and dose response studies, media was replaced with serum-free media and the cells were pre-incubated with the regioisomers for 4 hours prior to stimulation with 25 ng/mL LPS (Sigma-Aldrich, USA). Production of nitric oxide (NO) and cell toxicity and IL-6 production were measured.

Row | SMILES | apoptosis (apoptotic potential) (MG63 cells [1]) [%] | apoptosis (apoptotic potential) (143B cells [2]) [%] | apoptosis (apoptotic potential) (HOS cells [3]) [%] | EC50 (CNR2 (CB2)) [pM] | rate of hydrolysis [4] [pmol min^−1 mg protein^−1] | restriction in wound migration as compared to the control (143B cells [5]) | inhibition of migration more than vehicle control (HOS cells [6]; 8 and 10 hour time points) | restriction of wound migration as compared to control (HOS cells [6]) | EC50 (CNR1 (CB1)) [pM] | restriction in wound healing as compared to the control (MG63 cells [7]) | tube formation (angiogenesis) (HUVEC cells) | IL-6 production (BV-2 microglial cells) | nitrite production (BV-2 microglial cells)
1 | CC/C=C\C/C=C\C/C=C\CC1OC1C/C=C\C/C=C\CCC(=O)NC1CC1 (stereo not shown) [10,11-EDP-CA, (4Z,7Z)—N-Cyclopropyl-9-(3-((2Z,5Z,8Z)-undeca-2,5,8-trien-1-yl)oxiran-2-yl)nona-4,7-dienamide] | 17.09±4.4 | 21.3±1.9 | 27.19±4.05 | 460 | 5.17±0.06 | most potent | 4.5-6 times | most potent | 30 | comparable to 10, 1-EDP-EA | – | – | –
2 | CC/C=C\C/C=C\C/C=C\CC1OC1C/C=C\C/C=C\CCC(=O)NCCO (stereo not shown) [10,11-EDP-EA, reference compound] | – | – | – | 22500 | 30.0±0.3 | 1-1.9 times | – | 1.00-1.44 times | 430 | 1-2 times | Prevent Angiogenesis | – | –
3 | CC/C=C\C/C=C\C/C=C\CC1OC1C/C=C\C/C=C\CCC(=O)NC(C)CO (stereo not shown) [10,11-EDP-IA, (4Z,7Z)—N-(1-Hydroxypropan-2-yl)-9-(3-((2Z,5Z,8Z)-undeca-2,5,8-trien-1-yl)oxiran-2-yl)nona-4,7-dienamide] | 17.48±2.8 | 18.8±0.3 | 20.15±1.75 | 80 | 0.99±0.04 | 1-3.9 times | – | 1-1.75 times | 70 | slightly poorer than the control | – | – | –
4 | CC/C=C\C/C=C\C/C=C\CC1OC1C/C=C\C/C=C\CCC(=O)NCCCO (stereo not shown) [10,11-EDP-NA, (4Z,7Z)—N-(3-Hydroxypropyl)-9-(3-((2Z,5Z,8Z)-undeca-2,5,8-trien-1-yl)oxiran-2-yl)nona-4,7-dienamide] | 15.15±3.28 | 25.7±0.4 | 17.05±1.4 | 7300 | – | 1-1.47 times | – | 1-1.7 times | 190 | slightly poorer than the control | – | – | –
5 | CCC1OC1C/C=C\C/C=C\C/C=C\C/C=C\C/C=C\CCC(=O)NCCO (stereo not shown) [19,20-EDP-EA] | – | – | – | – | 150 | – | – | – | – | – | – | reduction in 11-6 and nitrite in a dose dependent manner | reduction in 11-6 and nitrite in a dose dependent manner
